Data on seven molecules can be found in patent publication US4965280A, “Antifungal carbinols” (E. I. Du Pont de Nemours and Company, priority 1989, dated 1990).

In test [1] the test system is Rhizoctonia solani. Put plainly: Example K cotton blight. The format is in vivo. The conditions noted are these: 336 h, 5 kg/ha, read-out: disease control rating, Ex. K. The procedure: […] Seeds and soil were then inoculated with a mixture of sand, cereal and mycelium of the fungus Rhizoctonia solani, causal agent of cotton blight, and incubated in a growth chamber at 30° C. for 14 days. Disease ratings were then made.

The next test deals with Sclerotium rolfsii. The test can be described thus: Example M southern blight. The format is in vivo. The following applies: Agroathelia rolfsii, 336 h; 5 kg/ha; read-out: disease control rating, Ex. M. The procedure:
[…] Seeds and soil were then inoculated with a mixture of sand, cereal and mycelium of the fungus Sclerotium rolfsii, causal agent of sourthern blight, and incubated in a growth chamber at 30° C. for 14 days. Disease ratings were then made.

Another test deals with Plasmorpara viticola. Put plainly: Example I grape downy mildew. The following applies: read-out: disease control rating, Ex. I. In kind it is in vivo. The method in brief:
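Grape seedlings sprayed to run-off; test suspension 100 or 20 ppm compound, acetone 6% v/v final, 250 ppm TREM 014 in purified water.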

The subject of a further test is Pyricularia oryzae. The test can be described thus: whole plant or invertebrate. The format is in vivo. The conditions noted are these: Pyricularia oryzae, 120 h; for pest or weed control at 100 ppm: read-out: disease control rating, Ex. E, 100 PPM; for pest or weed control at 20 ppm: read-out: disease control rating, Ex. E, 20 PPM.
The subject of the next test is Phytophthora infestans. Put plainly: whole plant or invertebrate. In kind it is in vivo. The following applies: Phytophthora infestans, in Solanum lycopersicum, read-out: disease control rating, Ex. H, 100 PPM.
In test [2] the test system is Cercosporidium personatum. Put plainly: Example B Peanut Late Leafspot. The format is in vivo. The conditions noted are these: Nothopassalora personata, read-out: disease control rating, Ex. B. The procedure, abridged: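 Compounds were dissolved in acetone (6% of final volume) and suspended at 100 or 20 ppm in purified water containing 250 ppm TREM 014 surfactant (polyhydric alcohol esters). The suspension was sprayed to run-off on peanut seedlings.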

For test [3], the system named is Candida albicans ATCC 11651. Put plainly: In vitro antifungal MIC, microtiter broth dilution. The conditions noted are these: for MIC: Candida albicans, ATCC11651, 24 h, read-out: MIC values, C. albicans, 30°, 24 hours.
Test [4] deals with Fusarium oxysporum f. sp. cucumerinum. Put plainly: Example L cucumber wilt. In kind it is in vivo. The conditions noted are these: 336 h, 5 kg/ha, read-out: disease control rating, Ex. L. On the procedure: […] Seeds and soil were then inoculated with a mixture of sand, cereal and mycelium of the fungus Fusarium oxysporum f. sp. cucumerinum, causal agent of cucumber wilt, and incubated in a growth chamber at 30° C. for 14 days. Disease ratings were then made.

Another test relates to Puccinia recondita. The test can be described thus: Example G wheat leaf rust. The format is in vivo. The following applies: read-out: disease control rating, Ex. G.
The test system of test [5] is Rhizoctonia solani. The test can be described thus: Example F rice sheath blight. The format is in vivo. The conditions noted are these: Rhizoctonia solani, 144 h, read-out: disease control rating, Ex. F. The procedure, abridged: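 Compounds, dissolved in acetone at 6% of final volume, were suspended at 100 or 20 ppm in purified water with 250 ppm polyhydric alcohol ester surfactant (TREM 014). Rice seedlings were sprayed with this suspension to run-off.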

Test [6] relates to Erysiphe graminis f. sp. tritici. The test can be described thus: Example D wheat powdery mildew. In kind it is in vivo. The conditions noted are these: Blumeria graminis, 144 h, read-out: disease control rating, Ex. D. The procedure, abridged: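 Compounds were dissolved in acetone (6% of final volume), then suspended at 100 or 20 ppm in purified water containing 250 ppm TREM 014 surfactant. Wheat seedlings were sprayed with this suspension to run-off.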

The test system of the next test is Botrytis cinerea. Put plainly: Example C bean grey mold. In kind it is in vivo. The following applies: Botrytis cinerea, 24 h, read-out: disease control rating, Ex. C. The procedure, abridged:
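Test compounds were taken up in acetone (6% of final volume) and suspended at 100 or 20 ppm in purified water containing 250 ppm TREM 014 surfactant (polyhydric alcohol esters). Broad bean seedlings were sprayed with this suspension until run-off.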

The subject of another test is Pythium aphanadermatum. The test can be described thus: Example J cucumber damping off. The format is in vivo. The conditions noted are these: Pythium, 336 h; 5 kg/ha; read-out: disease control rating, Ex. J. The method in brief:
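This cucumber damping-off test used soil and seeds infested with a sand–cereal preparation carrying mycelium of Pythium aphanadermatum. Incubation took place in a growth chamber held at 30° C. for 14 days. Afterwards, the extent of disease was scored as a disease control rating.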

The next test relates to Venturia inaequalis. Put plainly: Example A apple scab. In kind it is in vivo. The following applies: read-out: disease control rating, Ex. A. The procedure, abridged: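 Test compounds were dissolved in acetone (6% of final volume) and suspended at 100 or 20 ppm in purified water containing 250 ppm of the surfactant TREM 014 (polyhydric alcohol esters). Apple seedlings were sprayed with this suspension to the point of run-off.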

The subject of test [7] is Candida albicans ATCC 11651. The test can be described thus: In vivo systemic Candida infection in mice, primary assay. The conditions noted are these: Candida albicans, 150 mg/kg per day, read-out: % Survival. Also noted: species or system Candida albicans; CF-1 female mice. The procedure, abridged: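 CF-1 female mice (20 g, 10 per group) were infected IV with 0.2 ml of 1×10^7/ml C. albicans ATCC 11651, then given test compound subcutaneously at 50 or 150 mg/kg/day at 1 and 6 h post-infection and once daily for three more days. Survival was followed for 21 days against infected untreated mice; ≥70% protection at 14 days was scored active.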

Test [8] deals with Aspergillus fumigatus ATCC 28214. The test can be described thus: In vitro antifungal MIC, microtiter broth dilution. The conditions noted are these: Aspergillus fumigatus, ATCC28214, 24 h, read-out: MIC values, A. fumigatus, 30°, 24 hours. A general note: Broth dilution looks for growth in wells or tubes with falling amounts of substance.

Molecules are shown by their SMILES. ≈ marks a conversion by molar mass, not a printed value. Like-named read-outs stand apart in the source and are kept apart here.

As for `C=C(CO)C(O)(Cn1cncn1)c1ccc(F)cc1` (stereo not drawn) [Example 450], the pest or weed control at 5000 g/ha (with Rhizoctonia solani [1]; with Sclerotium rolfsii; in [4]; in the test on Pythium aphanadermatum) was 0% in each case. Further, the pest or weed control at 100 ppm came out at 51% in the test with Plasmorpara viticola; 46% with Pyricularia oryzae; 0% in the test with Phytophthora infestans; 0% in test [2]; 30% with Puccinia recondita; 34% in the test on Rhizoctonia solani [5]. Moreover, the pest or weed control at 100 ppm was 11% in test [6] and 54% in the test with Botrytis cinerea. In addition, in test [3], the MIC (as a rule, the lowest concentration found to suppress growth) was over 100 mg/L.

Turning to `C=C(c1cccc(F)c1)C(O)(Cn1cncn1)c1ccc(F)cc1` (stereo not drawn) [Example 15], the pest or weed control at 100 ppm in the test on Venturia inaequalis is 100%; with Plasmorpara viticola it was 0%; in the test on Pyricularia oryzae, 1%; in the test with Phytophthora infestans, 26%; in test [2], 100%; with Puccinia recondita it was 100%. The pest or weed control at 100 ppm with Rhizoctonia solani [5] is 93%; in test [6], 100%; with Botrytis cinerea, 99%. The values for the minimal inhibitory concentration (MIC) in test [3] and in test [8] were 0.1 mg/L (≈ 0.305 µM) and 50 mg/L (≈ 153 µM), respectively. The pest or weed control at 5000 g/ha (in test [4]; in the test on Pythium aphanadermatum) was 0% throughout. The responders at 150 mg/kg in test [7] (ATCC11651, 168 h, day 7) turned out to be 100%; in test [7] (ATCC11651, 336 h, day 14), 90%; in test [7] (ATCC11651, 504 h, day 21) it was 60%.

Regarding `C=C(c1ccc(F)cc1)C(O)(Cn1cncn1)c1ccc(F)cc1` (stereo not drawn) [Example 1, 2,3-Bis(4-fluorophenyl)-1-(1H-1,2,4-triazol-1-yl)-3-buten-2-ol], the pest or weed control at 100 ppm amounted to 62% in the test with Venturia inaequalis; 12% with Plasmorpara viticola; 90% with Pyricularia oryzae; 0% in the test with Phytophthora infestans; 100% in test [2]; 100% in the test with Puccinia recondita. Moreover, the values for the pest or weed control at 100 ppm (with Rhizoctonia solani [5]; in test [6]; in the test on Botrytis cinerea) were 97%, 98% and 81%, respectively. Further, the “MIC values, C. albicans” value in test [3] (30°, 24 hours) was at most 0.01 mg/L. Also, the pest or weed control at 5000 g/ha (in test [4]; in the test on Pythium aphanadermatum) was 0% throughout. Further, the responders at 150 mg/kg was 100% in [7] (ATCC11651, 168 h, day 7); 100% in test [7] (ATCC11651, 336 h, day 14); 80% in [7] (ATCC11651, 504 h, day 21). Further, the minimal inhibitory concentration (MIC) in test [8] amounted to 6.3 mg/L (≈ 19.2 µM).

As for `C=C(c1ccccc1)[C@](O)(Cn1cncn1)c1ccc(F)cc1` [Example 1276], the pest or weed control at 20 ppm with Venturia inaequalis was 93%; in the test on Pyricularia oryzae, 1%; in [2], 100%; in the test with Puccinia recondita it was 100%; in the test with Rhizoctonia solani [5], 52%; in test [6] it was 100%. The pest or weed control at 20 ppm in the test on Botrytis cinerea was determined as 86%. Besides, the pest or weed control at 100 ppm with Venturia inaequalis is 100%; in the test with Plasmorpara viticola, 0%; in the test on Pyricularia oryzae it was 1%; in the test on Phytophthora infestans it was 0%; in the test with Puccinia recondita, 100%; in the test with Rhizoctonia solani [5], 97%. The pest or weed control at 100 ppm worked out at 100% in [6] and 96% in the test with Botrytis cinerea. The MIC in test [3] worked out at 0.03 mg/L (≈ 0.097 µM); in test [8] it was 1.6 mg/L (≈ 5.17 µM). The pest or weed control at 5000 g/ha (in [4]; with Pythium aphanadermatum) was 0% in each case. The responders at 150 mg/kg in [7] (ATCC11651, 168 h, day 7) amounted to 100%; in test [7] (ATCC11651, 336 h, day 14) it was 70%; in test [7] (ATCC11651, 504 h, day 21), 50%.

Consider `C=C(c1ccccc1)C(O)(Cn1cncn1)c1ccc(Cl)s1` (stereo not drawn) [Example 618], for which the figures for the pest or weed control at 5000 g/ha (with Rhizoctonia solani [1]; in [4]; in the test on Pythium aphanadermatum) were 80%, 80% and 0%, respectively. Further, the pest or weed control at 100 ppm in the test with Venturia inaequalis was 100%; in the test with Plasmorpara viticola it was 0%; in the test with Pyricularia oryzae, 0%; in the test with Phytophthora infestans, 0%; in [2] it was 100%; in the test with Puccinia recondita, 100%. Also, the pest or weed control at 100 ppm in test [6] was 89%; with Botrytis cinerea, 98%.

In the case of `C=C(c1ccc(F)cc1)C(O)(Cn1cncn1)C(C)C` (stereo not drawn) [Example 667], the pest or weed control at 5000 g/ha (in the test on Rhizoctonia solani [1]; with Sclerotium rolfsii; in test [4]) was 0% each time. Also, the pest or weed control at 20 ppm with Venturia inaequalis came out at 13%; in the test with Pyricularia oryzae, 0%; in [2], 14%; in the test with Puccinia recondita, 0%; in the test on Rhizoctonia solani [5], 0%; in [6], 39%. For the same molecule, the pest or weed control at 20 ppm in the test on Botrytis cinerea was 7%. For the same molecule, the pest or weed control at 100 ppm in the test on Plasmorpara viticola turned out to be 10%; in the test with Pyricularia oryzae, 0%; in the test with Phytophthora infestans, 0%; in the test on Rhizoctonia solani [5] it was 0%; with Botrytis cinerea it was 4%. In addition, the MIC was determined as 6.3 mg/L (≈ 22.9 µM) in test [3] and 25 mg/L (≈ 90.8 µM) in test [8]. Further, the responders at 150 mg/kg in test [7] (ATCC11651, 168 h, day 7) is 10%; in test [7] (ATCC11651, 336 h, day 14) it was 0%; in test [7] (ATCC11651, 504 h, day 21) it was 0%.

As to `C=C(c1ccc(F)cc1)C(O)(Cn1cncn1)c1ccc(Cl)cc1Cl` (stereo not drawn) [Example 2], the pest or weed control at 100 ppm was 62% in the test on Venturia inaequalis; 99% in the test on Plasmorpara viticola; 95% with Pyricularia oryzae; 0% with Phytophthora infestans; 100% in [2]; 100% in the test on Puccinia recondita. For the same molecule, the pest or weed control at 100 ppm stood at 100% in the test on Rhizoctonia solani [5], 98% in [6] and 93% in the test on Botrytis cinerea. Further, the results for the MIC in [3] and in test [8] were at most 0.4 mg/L and 1.6 mg/L (≈ 4.23 µM), respectively. Also, the pest or weed control at 5000 g/ha (in test [4]; in the test with Pythium aphanadermatum) was 0% throughout. For the same molecule, the responders at 150 mg/kg in [7] (ATCC11651, 168 h, day 7) worked out at 100%; in [7] (ATCC11651, 336 h, day 14) it was 100%; in test [7] (ATCC11651, 504 h, day 21) it was 80%.
